# Assay results published in US20040253255A1, “Biological compositions and methods for treatment of nasopharyngeal cancer” (priority 2003, published 2004).
# Read-outs that look alike come from different tables or passages of the source.
# What was measured:
# [1] = tested on: human nasopharyngeal cancer; format: in vivo; details: tumor-bearing mice, 30 consecutive days of treatment, sacrificed on 31st day
# Protocol: The mice injected with tumor cells were divided into 4 experimental groups of ten mice per group and one control group. The four experimental groups were triplicated (i.e., using a total of 120 mice in the experimental groups).
# The mice in group CK2 also started receiving saline on the same day as the other four groups. The biological compositions, untreated yeast cells and saline were administered orally by a feeding tube and the CTX by intravenous injection for 30 consecutive days.
# [2] = tested on: human nasopharyngeal cancer; format: in vivo, mice; details: for Number of live animals remaining in the groups after 30 days of treatment: mice, 30 per group
# Protocol: The biological composition comprising […] per ml of activated and conditioned yeast cells of the strain Saccharomyces carlsbergensis Hansen strain AS2.116 was prepared by the methods described in Section 5.1 and subsections therein.
# The animals were prepared in a similar manner as described in Section 8.1.
# The mice injected with tumor cells were divided into 4 experimental groups of […] per group and one control group. The four experimental groups were triplicated […]. In group 2AY, the mice received 0.3 ml of the biological composition once per day. In group 2NY, the mice received 0.3 ml of the untreated yeast cells once per day. In group 2CTX, the mice were injected intravenously with 30 mg of cyclophosphamide (CTX) per kg body weight per day. In group 2CK1, the mice received 0.3 ml of physiological saline once per day.
# The mice received the biological compositions, untreated yeast cells, CTX or saline on the same day as the tumor cells were transplanted. The mice in group 2CK2 also started receiving saline on the same day as the other four groups. The biological compositions, untreated yeast cells and saline were administered orally by a feeding tube and the CTX by intravenous injection for 30 consecutive days. The mice were observed over 6 months from the day of tumor inoculation and survival was recorded. The weight of the mice and the weight of the tumor were determined by standard techniques.
# [3] = tested on: human nasopharyngeal cancer; test: rat model of human nasopharyngeal cancer, growth of the tumor; format: in vivo; details: tumor-bearing Wistar rats, 21 consecutive days of treatment, sacrificed on 22nd day
# Protocol: (§1) The biological composition comprising 10^8 cells per ml of activated and conditioned yeast cells of the strain Saccharomyces carlsbergensis Hansen strain AS2.116 was prepared by the methods described in Section 5.1 and subsections therein.
# The animals used to generate the nasopharyngeal cancer cells for the experiments were Wistar rats, male and female, 190 to 210 gram in body weight. The rats were starved for 24 hours before the surgery.
# Human nasopharyngeal cancer samples (obtainable from Cancer Institute, The Chinese Academy of Medical Sciences, Beijing, China) were carefully selected before, during, and after surgery in order to ensure engraftment occurred at the original position in the rat. The nasopharyngeal cancer samples were obtained from patients who have not received any radiation, chemotherapy or immune enhancement treatment. Nasopharyngeal cancer samples were divided into sections of about 1 mm^3 in size and immediately stored in RPMI-1640 suspension after removal from the human patient.
# The animals were generally anaesthetized. […]
# The rats received the biological compositions, untreated yeast cells, TSPA or saline on the same day as the tumor cells were transplanted. […] On the 22nd day from tumor inoculation, the rats were sacrificed and the weight of the rats as well as the weight of the tumor were determined by standard techniques.
# [4] = tested on: human nasopharyngeal cancer; test: rat model of human nasopharyngeal cancer, survival time; format: in vivo, Wistar rats; details: for Number of live animals remaining in the groups after 21 days of treatment: rats, 30 per group
# Protocol: as §1
# The animals were prepared in a similar manner as described in Section 6.1.
# The rats transplanted with tumor cells were divided into 4 experimental groups of ten rats per group and one control group. The four experimental groups were triplicated (i.e., using a total of 120 rats in the experimental groups). In group 2AY, the rats received 2.0 ml of the biological composition once per day. In group 2NY, the rats received 2.0 ml of the untreated yeast cells once per day. In group 2TSPA, the rats were injected intravenously 1.5 mg of thiotepa (TSPA) per kg body weight per day. In group 2CK1, the rats received 2.0 ml of physiological saline once per day.
# The rats received the biological compositions, untreated yeast cells, TSPA or saline on the same day as the tumor cells were transplanted. The rats in group 2CK2 also started receiving saline on the same day as the other four groups. The biological compositions, untreated yeast cells and saline were administered orally by a feeding tube and the TSPA by intravenous injection for 21 consecutive days. The rats were observed over 6 months from the day of tumor inoculation and survival was recorded. The weight of the rats and the weight of the tumor were determined by standard techniques.
# [5] = 0 month after cessation of treatment
# [6] = 1 month after cessation of treatment
# [7] = 2 months after cessation of treatment
# [8] = 3 months after cessation of treatment
# [9] = 4 months after cessation of treatment
# [10] = 5 months after cessation of treatment
# [11] = 6 months after cessation of treatment
# [12] = rats that survived, observed over 6 months
# [13] = mice that survived, observed over 6 months
smiles,measurement,setting,value
"O=P1(N(CCCl)CCCl)NCCCO1 (stereo not drawn) [CTX, cyclophosphamide]",mean weight of mice and standard deviation,[1],19.7 ± 2.4 g
same,mean weight of tumor nodules and standard deviation,[1],0.86 ± 0.13 g
same,Number of live animals remaining in the groups after 30 days of treatment,[2]; [5],30
same,Number of live animals remaining in the groups after 30 days of treatment,[2]; [6],27
same,Number of live animals remaining in the groups after 30 days of treatment,[2]; [7],17
same,Number of live animals remaining in the groups after 30 days of treatment,[2]; [8],11
same,Number of live animals remaining in the groups after 30 days of treatment,[2]; [9],3
same,Number of live animals remaining in the groups after 30 days of treatment,[2]; [10],0
same,Number of live animals remaining in the groups after 30 days of treatment,[2]; [11],0
same,survival of mice,[2]; observed over 6 months,all died during the experiment
"S=P(N1CC1)(N1CC1)N1CC1 [TSPA, thiotepa]",mean weight of rats and standard deviation,[3],207 ± 3.8 g
same,mean weight of tumor nodules and standard deviation,[3],1.6 ± 0.74 mg
same,survival of rats,[4]; from injection of tumor cells,all died after four months from injection of tumor cells
same,mean weight of rats and standard deviation,[4]; [12],all animals dead
same,mean weight of tumor nodules and standard deviation,[4]; [12],all animals dead
same,Number of live animals remaining in the groups after 21 days of treatment,[4]; [5],30
same,Number of live animals remaining in the groups after 21 days of treatment,[4]; [6],26
same,Number of live animals remaining in the groups after 21 days of treatment,[4]; [7],24
same,Number of live animals remaining in the groups after 21 days of treatment,[4]; [8],17
same,Number of live animals remaining in the groups after 21 days of treatment,[4]; [9],7
same,Number of live animals remaining in the groups after 21 days of treatment,[4]; [10],0
same,Number of live animals remaining in the groups after 21 days of treatment,[4]; [11],0
same,mean weight of mice and standard deviation,[2]; [13],all animals dead
same,mean weight of tumor nodules and standard deviation,[2]; [13],all animals dead
